Results reported in paper PMC9724248, “Anticancer peptide Q7 suppresses the growth and migration of human endometrial cancer by inhibiting DHCR24 expression and modulating the AKT-mediated pathway” (International Journal of Medical Sciences, 2022).
Read-outs that look alike come from different tables or passages of the source. Where no end group is shown, it is not given here.

Columns and labels:
Assay type in all cases: cell-based, human
HEC-1-A cells [1] = assay: MTT cytotoxicity of anticancer peptides
Experimental: (§1) Cells were seeded into 96-well tissue culture plates at a concentration of 1×10^4 cells/200 μl/well overnight. Subsequently, the cells were treated with serial dilutions of ACP, scrambled ACP, or non-ACP. After 48 h of incubation, the cell viability of each line was determined by the MTT colorimetric assay (Sigma-Aldrich).

HUVEC = conditions: MTT, 48 h, mean ± SD, ND: no detection, read-out: IC50 (50% decrease of cell viability)
Experimental: as §1

HEC-1-A cells [2] = assay: Wound healing assay (Culture-Insert); conditions: peptides 50 µM, 24 h
Experimental: HEC-1-A cells (3×10^4 cells/70 μl/well) were seeded into a Culture-Insert 2 well (Ibidi, Munich, Germany) overnight. Afterward, inserts were removed, peptides (50 µM) were added, the status of the scratch wounds was monitored using an inverted microscope at 0 h (removal of Culture-Insert) and 24 h, and representative images were collected. The results were presented as the percentage of wound closure, calculated as follows: [wound area (initial) - wound area (final)]/wound area (initial)×100. The wound area was measured using software image J.

AKT = assay: Western blot of AKT phosphorylation; conditions: HEC-1-A, 100 µM, 6 h (Fig. S3)
Experimental: The cells were lysed on ice with 100 μl of lysis buffer and centrifuged at 13,000 g for 20 min at 4 °C. The lysate proteins were quantified using BCA Protein Assay Reagent. Each sample load comprised 30 μg total proteins per lane and was resolved by 12.5% SDS-PAGE. After being transferred onto the PVDF membranes, the membranes were blocked with 5% skimmed dried milk for 1 h and incubated overnight with primary antibodies, including anti-DHCR24, anti-AKT, anti-pAKT, anti-p-GSK3beta, anti-mTOR, and anti-p-mTOR (dilution: 1:1,000; Thermo); anti-S6K1, anti-p-p53, anti-cyclin D1, and anti-cleaved caspase 3 (dilution: 1:500; Thermo); anti-pS6K1 (dilution: 1:2,000; Thermo); anti-p53 and anti-GSK3beta (dilution: 1:200; Thermo); anti-BAX (dilution: 1:2,000; Thermo); anti-p-FoxO3A, anti-HIF-1α, and anti-actin (dilution: 1:1,500; GeneTex Inc., Irvine, CA, USA). The membrane was then washed and incubated with anti-rabbit IgG secondary antibodies followed by horseradish peroxidase. The protein expressions were visualized with an ECL kit (Pierce, Rockford, IL, USA) according to the manufacturer's instructions. Actin acted as the loading control.
Figure S3. Q7 repressed the phosphorylation of AKT-kinase.
After 6 h incubation of Q7 (100 µM), sQ7 and nACP, the AKT protein expression of
HEC-1-A cells was detected by using western blotting.
(1 picture or pasted object on this page, not shown here)

[3] = HEC-1-A, MTT, 48 h, mean ± SD, read-out: IC50 (50% decrease of cell viability)

CSCC[C@H](N)C(=O)N[C@@H](CCC(=O)O)C(=O)N[C@@H](Cc1ccccc1)C(=O)N[C@H](C(=O)N[C@@H](C)C(=O)N[C@@H](CCCCN)C(=O)N[C@@H](CC(C)C)C(=O)N[C@@H](Cc1ccccc1)C(=O)N[C@@H](CCCCN)C(=O)N[C@@H](Cc1ccccc1)C(=O)N[C@@H](Cc1ccccc1)C(=O)N[C@@H](CCCCN)C(=O)N[C@@H](CC(=O)O)C(=O)N[C@@H](CC(C)C)C(=O)N[C@@H](CC(C)C)C(=O)NCC(=O)N[C@@H](CCCCN)C(=O)N[C@@H](Cc1ccccc1)C(=O)N[C@@H](CC(C)C)C(=O)NCC(=O)N[C@@H](CC(N)=O)C(=O)N[C@@H](CC(N)=O)C(=O)O)C(C)C [ACP NO. 3]
IC50 (HEC-1-A cells [1]; [3]): 8.78 ± 0.77 µM
IC50 (HUVEC): 9.72 ± 0.84 µM

EQQQQQQPQNRRFRE [Q7]
IC50 (HEC-1-A cells [1]; 48 h): 130 ± 7.53 µM

FKGGGPYGQGVTRGQDLSGKDF [ACP NO. 1]
IC50 (HEC-1-A cells [1]; [3]): 27.5 ± 2.5 µM
IC50 (HUVEC): 29.1 ± 1.72 µM

GLLGVLGSVAKHVLPHVVPVIAEHL [ACP NO. 8]
IC50 (HEC-1-A cells [1]; [3]): 23.7 ± 2.19 µM
IC50 (HUVEC): 26.1 ± 2.38 µM

RQPQNQRQEQFQEQR [sQ7, reference compound]
IC50 (HEC-1-A cells [1]; HEC-1-A, MTT, 0-400 μM, 48 h (Fig. 1A), mean ± SD, read-out: fifty percent of growth inhibition concentration (IC50)): 158 ± 13.9 µM

nACP: non-ACP (nACP), human HSP27_36-50 (PRLPEEWSQWLGGSS; UniProt P04792 36-50, looked up, fragment)
toxic effects on HEC-1-A cells (HEC-1-A cells [1]; MTT, 48 h, up to 400 μM): not obviously toxic effects
wound closure rate (HEC-1-A cells [2]): 85%
level of phosphorylation of AKT (AKT): no obvious effect
